# Source: patent publication US20250099634A1, “METHOD OF TREATING CANCER” (Novartis AG, priority 2023, published 2025)
# Legend:
# [1] = NETTER-2 serious adverse events in the randomized treatment period (Safety Set)
# Source text: All adverse events (AEs), whether or not spontaneously reported by the patient, will be recorded starting from the signing of the ICF until the end of the Treatment Phase. Safety summaries (tables, figures) include only data from the on-treatment period with the exception of baseline data which will also be summarized where appropriate (e.g. change from baseline summaries). In addition, a separate summary for death including on treatment and post treatment deaths will be provided. In particular, summary tables for adverse events (AEs) will summarize only on-treatment events, with a start date during the on-treatment period (treatment-emergent AEs).
# Separate summaries will be provided for study medication related adverse events, death, serious adverse events, other significant adverse events leading to discontinuation and adverse events leading to dose adjustment.
# [2] = test system: Grade 2 and Grade 3 advanced GEP-NET; test: NETTER-2 Progression-Free Survival (PFS), central review using RECIST 1.1; type: in vivo, human; settings: Full Analysis Set; for Kaplan-Meier event-free estimates (95% CI): PFS
# Protocol: The primary efficacy end-point is PFS as measured by objective tumor response, which is determined by RECIST criteria, Version 1.1 (Eisenhauer, et al., 2009). Tumor response will be assessed locally and centrally.
# It is recommended that for each patient identical acquisition and reconstruction protocols be used at all time-points. Central, blinded, real-time IRC (Independent Review Committee) assessment will be conducted for determining progressive disease. Changes from randomization date will be assessed at week 16±1, week 24±1 and then every 12±1 weeks until the PFS primary analysis End-Point has been reached, then until Week 72 after randomization, unless the patient progresses or dies.
# The primary endpoint of the study is progression-free survival (PFS), defined as the time from the date of randomization to the date of the first documented progression or death due to any cause. PFS will be assessed via central review according to RECIST 1.1.
# The stratification will be based on following randomization stratification factors (grade: G2 vs. G3; and tumor origin: pNET vs other origin).
# Analyses will be based on the FAS population according to the randomized treatment group and strata assigned at randomization. The PFS distribution will be estimated using the Kaplan-Meier method, and Kaplan-Meier curves, median and associated 95% confidence intervals will be presented for each treatment group. The hazard ratio for PFS will be calculated, along with its 95% confidence interval, from a stratified Cox model using the same stratification factors as for the log-rank test.
# [3] = NETTER-2 worst post-baseline hematology abnormalities based on CTC grades (Safety Set); type: in vivo, human; settings: randomized treatment period; for Worst post-baseline abnormality: Hemoglobin (g/L)-Decrease / Worst post-baseline abnormality: Hemoglobin (g/L)-Increase / Worst post-baseline abnormality: Leukocytes (10E9/L)-Decrease / Worst post-baseline abnormality: Leukocytes (10E9/L)-Increase / Worst post-baseline abnormality: Lymphocytes (10E9/L)-Decrease / Worst post-baseline abnormality: Lymphocytes (10E9/L)-Increase / Worst post-baseline abnormality: Neutrophils (10E9/L)-Decrease / Worst post-baseline abnormality: Platelets (10E9/L)-Decrease: Safety Set
# Source text: The laboratory assessments require that blood samples for hematology and blood chemistry, and a urine sample for urinalysis are taken. Laboratory assessments will be performed at the investigational site.
# Blood tests performed 4 weeks after any treatment cannot serve as baseline values for the next treatment.
# All laboratory data will be listed by treatment group, subject, and visit/time and if normal ranges are available abnormalities will be flagged. Summary statistics will be provided by treatment and visit/time. Shift tables using the low/normal/high/(low and high) classification will be used to compare baseline to the worst on-treatment value.
# Grading of laboratory values will be assigned programmatically as per NCI Common Terminology Criteria for Adverse Events (CTCAE) version 5.0 or current version. The calculation of CTCAE grades will be based on the observed laboratory values only, clinical assessments will not be taken into account.
# The following summaries will be generated separately for hematology, and biochemistry tests: • 1. Listing of all laboratory data with values flagged to show the corresponding CTCAE grades if applicable and the classifications relative to the laboratory normal ranges • 2. For laboratory tests where grades are defined by CTCAE, • 3. Worst post-baseline CTCAE grade (regardless of the baseline status). Each subject will be counted only once for the worst grade observed post-baseline. • 4. Shift tables using CTCAE grades to compare baseline to the worst on-treatment value • 5. For laboratory tests where grades are not defined by CTCAE, • 6. Shift tables using the low/normal/high/(low and high) classification to compare baseline to the worst on-treatment value.
# [4] = All grades, randomized treatment period, Safety Set
# [5] = Grade >=3, randomized treatment period, Safety Set
# [6] = randomized treatment period, Safety Set
compound,measurement,setting,value
"C[C@@H](O)[C@@H]1NC(=O)[C@H](CCCCN)NC(=O)[C@@H](Cc2c[nH]c3ccccc23)NC(=O)[C@H](Cc2ccccc2)NC(=O)[C@@H](NC(=O)[C@H](N)Cc2ccccc2)CSSC[C@@H](C(=O)N[C@H](CO)[C@@H](C)O)NC1=O [Octreotide LAR, octreotide]",Fatal SAEs,[1]; [4],2 (2.7) n (%)
same,Fatal SAEs Related to Any Treatment,[1]; [4],0 n (%)
same,Fatal SAEs Related to Octreotide,[1]; [4],0 n (%)
same,SAEs Related to Any Treatment,[1]; [4],1 (1.4) n (%)
same,SAEs Related to Octreotide,[1]; [4],1 (1.4) n (%)
same,Serious adverse event: Abdominal pain,[1]; [4],0 n (%)
same,Serious adverse event: Abdominal sepsis,[1]; [4],1 (1.4) n (%)
same,Serious adverse event: Acute coronary syndrome,[1]; [4],1 (1.4) n (%)
same,Serious adverse event: Acute kidney injury,[1]; [4],1 (1.4) n (%)
same,Serious adverse event: Anaemia,[1]; [4],1 (1.4) n (%)
same,Serious adverse event: Ascites,[1]; [4],1 (1.4) n (%)
same,Serious adverse event: Blood bilirubin increased,[1]; [4],1 (1.4) n (%)
same,Serious adverse event: Carcinoid heart disease,[1]; [4],1 (1.4) n (%)
same,Serious adverse event: Carcinoid syndrome,[1]; [4],1 (1.4) n (%)
same,Serious adverse event: Diarrhoea,[1]; [4],1 (1.4) n (%)
same,Serious adverse event: Femur fracture,[1]; [4],1 (1.4) n (%)
same,Serious adverse event: Gastroenteritis,[1]; [4],1 (1.4) n (%)
same,Serious adverse event: Gastrointestinal stoma complication,[1]; [4],0 n (%)
same,Serious adverse event: Generalised oedema,[1]; [4],1 (1.4) n (%)
same,Serious adverse event: Hip fracture,[1]; [4],1 (1.4) n (%)
same,Serious adverse event: Hyperglycaemia,[1]; [4],1 (1.4) n (%)
same,Serious adverse event: Hypertension,[1]; [4],1 (1.4) n (%)
same,Serious adverse event: Hypoalbuminaemia,[1]; [4],1 (1.4) n (%)
same,Serious adverse event: Intestinal obstruction,[1]; [4],1 (1.4) n (%)
same,Serious adverse event: Jaundice,[1]; [4],1 (1.4) n (%)
same,Serious adverse event: Lower gastrointestinal haemorrhage,[1]; [4],1 (1.4) n (%)
same,Serious adverse event: Metabolic encephalopathy,[1]; [4],1 (1.4) n (%)
same,Serious adverse event: Oedema peripheral,[1]; [4],1 (1.4) n (%)
same,Serious adverse event: Pleurisy,[1]; [4],1 (1.4) n (%)
same,Serious adverse event: Pyrexia,[1]; [4],0 n (%)
same,Serious adverse event: Small intestinal obstruction,[1]; [4],0 n (%)
same,Serious adverse event: Tumour lysis syndrome,[1]; [4],1 (1.4) n (%)
same,Fatal SAEs,[1]; [5],2 (2.7) n (%)
same,Fatal SAEs Related to Any Treatment,[1]; [5],0 n (%)
same,Fatal SAEs Related to Octreotide,[1]; [5],0 n (%)
same,SAEs Related to Any Treatment,[1]; [5],1 (1.4) n (%)
same,SAEs Related to Octreotide,[1]; [5],1 (1.4) n (%)
same,Serious adverse event: Abdominal pain,[1]; [5],0 n (%)
same,Serious adverse event: Abdominal sepsis,[1]; [5],1 (1.4) n (%)
same,Serious adverse event: Acute coronary syndrome,[1]; [5],0 n (%)
same,Serious adverse event: Acute kidney injury,[1]; [5],1 (1.4) n (%)
same,Serious adverse event: Anaemia,[1]; [5],1 (1.4) n (%)
same,Serious adverse event: Ascites,[1]; [5],1 (1.4) n (%)
same,Serious adverse event: Blood bilirubin increased,[1]; [5],1 (1.4) n (%)
same,Serious adverse event: Carcinoid heart disease,[1]; [5],1 (1.4) n (%)
same,Serious adverse event: Carcinoid syndrome,[1]; [5],1 (1.4) n (%)
same,Serious adverse event: Diarrhoea,[1]; [5],1 (1.4) n (%)
same,Serious adverse event: Femur fracture,[1]; [5],0 n (%)
same,Serious adverse event: Gastroenteritis,[1]; [5],1 (1.4) n (%)
same,Serious adverse event: Gastrointestinal stoma complication,[1]; [5],0 n (%)
same,Serious adverse event: Generalised oedema,[1]; [5],1 (1.4) n (%)
same,Serious adverse event: Hip fracture,[1]; [5],1 (1.4) n (%)
same,Serious adverse event: Hyperglycaemia,[1]; [5],1 (1.4) n (%)
same,Serious adverse event: Hypertension,[1]; [5],1 (1.4) n (%)
same,Serious adverse event: Hypoalbuminaemia,[1]; [5],1 (1.4) n (%)
same,Serious adverse event: Intestinal obstruction,[1]; [5],1 (1.4) n (%)
same,Serious adverse event: Jaundice,[1]; [5],1 (1.4) n (%)
same,Serious adverse event: Lower gastrointestinal haemorrhage,[1]; [5],1 (1.4) n (%)
same,Serious adverse event: Metabolic encephalopathy,[1]; [5],1 (1.4) n (%)
same,Serious adverse event: Oedema peripheral,[1]; [5],1 (1.4) n (%)
same,Serious adverse event: Pleurisy,[1]; [5],1 (1.4) n (%)
same,Serious adverse event: Pyrexia,[1]; [5],0 n (%)
same,Serious adverse event: Small intestinal obstruction,[1]; [5],0 n (%)
same,Serious adverse event: Tumour lysis syndrome,[1]; [5],1 (1.4) n (%)
same,Incidence of SAEs: Small intestinal obstruction,"[1]; most frequent SAE, summary table",0 (%)
same,Serious AEs,[1]; randomized treatment period,20.5%
same,"Serious AEs, Treatment-related",[1]; randomized treatment period,1.4%
same,SAE with fatal outcome: Blood bilirubin increased,[1]; [6],0 n (%)
same,SAE with fatal outcome: Diarrhoea,[1]; [6],1 (1.4) n (%)
same,SAE with fatal outcome: Dyspnoea,[1]; [6],0 n (%)
same,SAE with fatal outcome: Intestinal perforation,[1]; [6],0 n (%)
same,SAE with fatal outcome: Tumor Lysis syndrome,[1]; [6],1 (1.4) n (%)
same,SAEs with fatal outcome,[1]; [6],2 (2.7) n (%)
same,SAEs with fatal outcome reported in subjects with primary reason for death = Disease under Study,[1]; [6],2 (2.7) n (%)
same,Kaplan-Meier event-free estimates (95% CI),[2]; 4 months,"73.5 (61.2, 82.4) %"
same,Kaplan-Meier event-free estimates (95% CI),[2]; 6 months,"64.5 (51.8, 74.6) %"
same,Kaplan-Meier event-free estimates (95% CI),[2]; 9 months,"46.0 (33.4, 57.7) %"
same,Kaplan-Meier event-free estimates (95% CI),[2]; 12 months,"42.4 (30.0, 54.3) %"
same,Kaplan-Meier event-free estimates (95% CI),[2]; 15 months,"36.4 (24.3, 48.5) %"
same,Kaplan-Meier event-free estimates (95% CI),[2]; 18 months,"29.2 (17.7, 41.7) %"
same,Kaplan-Meier event-free estimates (95% CI),[2]; 24 months,"19.5 (9.1, 32.7) %"
same,PFS Events,[2],46 (61.3) n (%)
same,PFS events: Deaths,[2],5 (6.7) n (%)
same,PFS events: Progression,[2],41 (54.7) n (%)
same,Median PFS (95% CI),"[2]; central review, RECIST 1.1","8.5 (7.7, 13.8) months"
same,PFS 25th percentile (95% CI),"[2]; central review, RECIST 1.1","3.9 (3.7, 5.7) months"
same,PFS 75th percentile (95% CI),"[2]; central review, RECIST 1.1","19.3 (13.8, NE) months"
same,Median PFS (95% CI),"[2]; central review, RECIST 1.1, listed as High-dose Octreotide",8.5 months
same,Median PFS (95% CI),"[2]; central review, RECIST 1.1, listed as high-dose Octreotide","8.5 (7.7, 13.8) months"
same,Worst post-baseline abnormality: Hemoglobin (g/L)-Decrease,[3]; All grades (CTCAE v5.0),42 (57.5) n (%)
same,Worst post-baseline abnormality: Hemoglobin (g/L)-Increase,[3]; All grades (CTCAE v5.0),2 (2.7) n (%)
same,Worst post-baseline abnormality: Leukocytes (10E9/L)-Decrease,[3]; All grades (CTCAE v5.0),15 (20.5) n (%)
same,Worst post-baseline abnormality: Leukocytes (10E9/L)-Increase,[3]; All grades (CTCAE v5.0),0 n (%)
same,Worst post-baseline abnormality: Lymphocytes (10E9/L)-Decrease,[3]; All grades (CTCAE v5.0),45 (61.6) n (%)
same,Worst post-baseline abnormality: Lymphocytes (10E9/L)-Increase,[3]; All grades (CTCAE v5.0),3 (4.1) n (%)
same,Worst post-baseline abnormality: Neutrophils (10E9/L)-Decrease,[3]; All grades (CTCAE v5.0),9 (12.3) n (%)
same,Worst post-baseline abnormality: Platelets (10E9/L)-Decrease,[3]; All grades (CTCAE v5.0),15 (20.5) n (%)
same,Worst post-baseline abnormality: Hemoglobin (g/L)-Decrease,[3]; Grade 3/4 (CTCAE v5.0),2 (2.7) n (%)
same,Worst post-baseline abnormality: Hemoglobin (g/L)-Increase,[3]; Grade 3/4 (CTCAE v5.0),0 n (%)
same,Worst post-baseline abnormality: Leukocytes (10E9/L)-Decrease,[3]; Grade 3/4 (CTCAE v5.0),0 n (%)
same,Worst post-baseline abnormality: Leukocytes (10E9/L)-Increase,[3]; Grade 3/4 (CTCAE v5.0),0 n (%)
same,Worst post-baseline abnormality: Lymphocytes (10E9/L)-Decrease,[3]; Grade 3/4 (CTCAE v5.0),2 (2.7) n (%)
same,Worst post-baseline abnormality: Lymphocytes (10E9/L)-Increase,[3]; Grade 3/4 (CTCAE v5.0),0 n (%)
same,Worst post-baseline abnormality: Neutrophils (10E9/L)-Decrease,[3]; Grade 3/4 (CTCAE v5.0),0 n (%)
same,Worst post-baseline abnormality: Platelets (10E9/L)-Decrease,[3]; Grade 3/4 (CTCAE v5.0),0 n (%)
same,Grade 3/4 hematologic lab abnormality: lymphocytes decrease,[3],2.7%
